Two compounds from paper PMC6385358, “Discovery of ((1,2,4-oxadiazol-5-yl)pyrrolidin-3-yl)ureidyl derivatives as selective non-steroidal agonists of the G-protein coupled bile acid receptor-1” (Scientific Reports, 2019) can be followed below.

A short description of data set [1]: LogD measurement (octanol/PBS pH 7.4). The class given is physicochemical. As to conditions: octanol/PBS (1/1). The protocol:
(§1) Chromatography was performed using a HPLC–MS system Q-ToF Premiere instrument (Waters, Co.) equipped with an ESI source and Waters pump systems. The mixture was separated on a Luna 5 µm C8(2) 100 °A 150 × 2 mm from Phenomenex. The mobile phase consisted of 0.2% formic acid (FA) in water as solvent A and 0.2% FA in acetonitrile as solvent B at a flow rate of 200 μL/min. The gradient was as follows: 0–2 min (75% A and 25% B), 2–20 min (5% A and 95% B), 20–30 min (75% A and 25% B). The detection of analytes was achieved by ESI in the positive mode with the appropriate MRM transition or by UV system at 220 nm.
Ten μL of a 10 mM solution in DMSO of the compound was diluted in 490 μL of a 1/1 octanol/PBS mixture at pH 7.4. The mixture was gently shaken for 2 h at room temperature. Ten microliters of each phase was diluted in 490 μL of MeOH and analyzed by LC-MS/MS. Each compound was tested in triplicate. Log D was determined as the logarithm of the ratio of concentration of product in octanol and PBS, determined by mass signals.

A short description of data set [2]: Liver microsomal stability. Format: in vitro ADME, mouse. To be noted: liver microsomes; for CIint / half-life at 1 μM: 1 μM compound; for CIint: 0.3 mg protein/mL; for half-life at 1 μM: male, CD-1, mouse, pH 7.4, read-out: t½. The procedure: as §1
Male mouse (CD-1) liver microsomes (Sigma-Aldrich) were used. All incubations were performed in duplicate in a shaking water bath at 37 °C. The incubation mixtures contained 1 μM compound with 1% DMSO used as a vehicle, mouse liver microsomes (0.3 mg of microsomal protein per mL), 5 mM MgCl2, 1 mM NADP, 5 mM glucose 6-phosphate, 0.4 U·mL^-^1 glucose 6-phosphate dehydrogenase, and 50 mM potassium phosphate buffer (pH 7.4) in a final volume of 0.5 mL. Aliquots were removed at 0, 5, 10, 20, 30, and 40 min after microsome addition and the reaction was stopped by adding 200 μL of ice-cold acetonitrile. After 2 h, the samples were centrifuged for 10 min at 10000 rpm, and the supernatants were transferred in matrix tubes for LC-MS/MS analysis. Propranolol, known as a high hepatic clearance drug in rodents, was used as a quality-control compound for the microsomal incubations. The slope of the linear regression of the curve obtained reporting the natural logarithm of compound area versus incubation time (−k) was used in the conversion to in vitro t1/2 values by t1/2 = […]. In vitro intrinsic clearance (Clint expressed as μL/min/mg) was calculated according to the following formula: Clint = volume of reaction (μL)/t1/2 (min)/protein of liver microsomes (mg).

In the next data set the target is T1, PPARγ (Homo sapiens, UniProt P37231).
T1 construct: host or cells: HepG2
T1 sequence (P37231 1-505): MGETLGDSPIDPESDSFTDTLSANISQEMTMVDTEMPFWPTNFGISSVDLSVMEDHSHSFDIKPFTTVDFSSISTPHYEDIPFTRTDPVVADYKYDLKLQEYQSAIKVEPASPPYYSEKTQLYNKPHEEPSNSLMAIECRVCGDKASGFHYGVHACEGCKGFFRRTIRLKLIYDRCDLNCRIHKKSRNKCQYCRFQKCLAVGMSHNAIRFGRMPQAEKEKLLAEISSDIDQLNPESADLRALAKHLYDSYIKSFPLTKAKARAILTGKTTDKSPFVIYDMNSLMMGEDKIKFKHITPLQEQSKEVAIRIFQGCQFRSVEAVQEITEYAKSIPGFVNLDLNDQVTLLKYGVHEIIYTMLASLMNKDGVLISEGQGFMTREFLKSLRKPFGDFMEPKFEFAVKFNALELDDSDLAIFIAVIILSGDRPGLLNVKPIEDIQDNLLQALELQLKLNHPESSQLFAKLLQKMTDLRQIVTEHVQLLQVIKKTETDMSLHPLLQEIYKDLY
Put plainly: Luciferase reporter specificity assay versus PPARγ on HepG2 cells. Format: cell-based. As to conditions: 10 μM. The protocol: (§2) The activity of compounds 1–14 on GPBAR1 was evaluated in a luciferase reporter assay using HEK-293T cells transfected with GPBAR1. The efficacy of tested compounds (Table 1) was measured using taurolithocholic acid (TLCA) as GPBAR1 reference compound[10],[11]. Each compound was tested at the concentration of 10 μM and transactivation activity of TLCA on a cAMP responsive element (CRE) (i.e. TGR5/GPBAR1) was considered equal to 100%. […] Thus, 9 and 10 (Table 1) turned out to be the most promising derivatives considering their low EC50 values and high activity efficacy. To further characterize the pharmacological properties of these compounds, we expanded their in vitro profile to common off-targets for bile acid receptor ligands.
(§3) Figure 3 (A) Dose response curves of compounds 9 and 10 (concentrations ranging from 1 to 50 µM) in luciferase reporter assay. (B) Real-time PCR analysis of mRNA expression of Pro-glucagon in GLUTag cells treated with compounds 9 and 10 at 10 μM, and TLCA used as a positive control (10 μM). Values are normalized to GAPDH and are expressed relative to those of not treated cells (NT) which are arbitrarily settled to 1. The relative mRNA expression is expressed as 2^(−ΔΔCt). […]
(§4) The specificity of compounds 9 and 10 versus PPARα, PPARγ, LXRα, LXRβ, FXR and PXR was determined in luciferase reporter gene assays as previously reported[29],[31].
In general terms: In a reporter assay the amount or activity of a reporter protein is the signal.

In the next data set the target is T2, PXR (Homo sapiens, UniProt O75469).
T2 construct: host or cells: HepG2
T2 sequence (O75469 1-434): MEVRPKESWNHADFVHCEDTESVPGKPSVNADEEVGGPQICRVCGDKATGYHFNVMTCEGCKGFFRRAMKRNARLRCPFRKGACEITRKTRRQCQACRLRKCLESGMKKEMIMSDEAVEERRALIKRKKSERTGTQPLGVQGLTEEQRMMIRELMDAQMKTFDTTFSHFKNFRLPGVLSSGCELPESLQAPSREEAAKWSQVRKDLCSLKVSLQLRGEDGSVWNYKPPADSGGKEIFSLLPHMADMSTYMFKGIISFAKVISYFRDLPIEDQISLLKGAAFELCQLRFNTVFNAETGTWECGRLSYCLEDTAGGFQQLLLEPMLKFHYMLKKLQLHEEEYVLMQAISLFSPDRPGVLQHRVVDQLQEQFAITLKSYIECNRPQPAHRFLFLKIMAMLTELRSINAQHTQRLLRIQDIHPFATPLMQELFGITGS
Put plainly: Luciferase reporter specificity assay versus PXR on HepG2 cells. As to conditions: 10 μM. Format: cell-based. The procedure: as §2, §3, §4

For orientation: logD means lipophilicity at a set pH, counting ionised and neutral species. A high value points to higher lipophilicity. For `O=C(Nc1ccc(Cl)cc1)N[C@@H]1CN[C@H](c2nc(-c3ccccc3)no2)C1` [Compound 9], the logD at 2 h in data set [1] was found to be 1.47. In addition, in data set [2], the CIint is on record as 67 μL/min/mg protein, the “Compound remaining 40 min after treatment” value came out at 42% and the half-life at 1 μM was found to be 35 min. Moreover, the PPARγ transactivation entry on PPARγ is “unable to induce”. Moreover, the PXR transactivation result on PXR is reported as “unable to induce”.
`O=C(NC1CCCCC1)N[C@@H]1CN[C@H](c2nc(-c3ccccc3)no2)C1` [Compound 10] showed a logD at 2 h in data set [1] of 1.25. In data set [2], the CIint is given as 76 μL/min/mg protein, the “Compound remaining 40 min after treatment” value was 40% and the half-life at 1 μM came out at 30 min. Moreover, the PPARγ transactivation entry at PPARγ is “unable to induce”. The PXR transactivation result at PXR is on record as “unable to induce”.
